Key:
[1] = test system: benzodiazepine receptors; experiment: in vivo inhibition of 3H-flunitrazepam binding (forebrain membranes of injected mice); conditions: usually subcutaneously, 3H-flunitrazepam i.v. 15 minutes later, killed after a further 20 minutes
Procedure: The ED50 value represents the dose (mg/kg) of a test substance which causes the specific binding of flunitrazepam to benzodiazepine receptors in a living brain to be reduced to 50% of the control value. Such an in vivo test is carried out as follows:
Groups of mice are injected with the test substance of different doses and usually subcutaneously. 15 minutes later ^3 H-flunitrazepam is administered intravenously to the mice, and after a further 20 minutes, the mice are killed. Their forebrain membranes are removed and the radioactivity of these forebrain membranes is measured by scintillation counting. The ED50 value is determined from dose-response curves.

[2] = biological target: benzodiazepine receptors; experiment: in vitro inhibition of 3H-flunitrazepam binding (displacement test, brain membrane suspension); parameters: unit not given here; conditions: 3H-flunitrazepam 1.0 nM, 0° C., rat forebrain, pH 7.1

SMILES	Inhibition of H^3flunitrazepam binding in vivo ED50 [1] [mg/kg]	Inhibition of H^3flunitrazepam binding in vitro IC50 [2]
CCOC(=O)c1ncc2[nH]c3cccc(OC(C)C)c3c2c1COC	1.4	0.6
CCOC(=O)c1ncc2[nH]c3cccc(OC4CCC4)c3c2c1COC	0.5	0.2
CCOCc1cccc2[nH]c3cnc(C(=O)OCC)c(COC)c3c12 [Example 1, 5-ethoxymethyl-4-methoxymethyl-β-carboline-3-carboxylic acid ethylester]	2.4	0.4
